Consider three molecules from patent US20080051419A1, “AMINE DERIVATIVES USEFUL AS ANTICANCER AGENTS” (PFIZER INC., priority 2006, published 2008).

The target of assay [1] is T1, Akt1 (Homo sapiens, UniProt P31749, S473D).
T1 construct: The version of Akt used in these studies lacks the pleckstrin homology (PH) domain
The experiment in a line: Akt1 kinase assay, fluorescence polarization (IMAP). The class given is biochemical. The note with it: Table 6, selectivity study; read-out: Akt Kinase Activity. The gist of the method: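 His-tagged Akt1 lacking the PH domain, Thr308-prephosphorylated, 1.5 ng per reaction, with 4 μM ATP and 40 nM TAMRA-Crosstide (solution concentrations) in Tris pH 7.5/MgCl2/DTT buffer. Incubated 30 min at ambient temperature; IMAP fluorescence polarization read (544/615 nm). IC50 after subtraction of no-enzyme background.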

Assay [2] has as its target T2, PKA, catalytic subunit, recombinant (Homo sapiens, UniProt P17612).
T2 construct: purchased Upstate 14-440
Nature of the assay: PKA IMAP Kinase Assay. The note with it: for Selectivity Ratio (PKA/Akt): PKA IC50 divided by Akt IC50; for IC50: Table 6, selectivity study. The class given is biochemical. How it is done: The PKA Kinase assay is used to measure the selectivity of the compounds of formula I for PKA kinase as discussed below. The PKA activity of the compounds of formula I was determined using the PKA IMAP® Kinase Assay (G7096A).
Materials: • 1) Kinase Reaction Buffer (RB):—10 mM Tris-HCl, pH 7.5, 10 mM MgCl2, 0.1 mM EGTA, 0.01% Triton-X 100 (Sigma #X-100); 1 mM DTT (N.E. Biolabs #B7705S) added fresh • 2) ATP (Sigma #5394) 10 mM stock in H2O, −20° C. • 3) 20 μM working stock TAMRA Kemptide (TK. Molecular Devices #R7332): [N-Term]TMRS-Leu-Arg-Arg-Ala-Ser-Leu-Gly-OH[C-Term] • 4) PKA, catalytic subunit, recombinant (Upstate #14-440). 5 ug/25 ul lot 22361AU • 5) DMSO (Baker #9224-01) • 6) IMAP® Progressive Express Screening Kit for IPP (Molecular Devices #R8124) Includes IMAP® Progressive Beads and Binding Buffer • 7) 96-well ½ area plates, black polystyrene, Costar #3694 • 8) 96-well round bottom polypropylene plates, Costar #9667
NOTE: Protect all Tamra-Containing Reagents from Light.
• 1) Prepare the 1× Reaction Buffer (RB) by fresh addition of DTT to 1 mM • 2) For single point testing, make up compound dilution plate as follows: “96 well plates; Row Empty: empty; 84 cmpds” are added to the remaining wells at […]. • 3) For 150 determination: To column 2 of polypropylene plate add 100 ul 100% DMSO; to all other wells add 60 ul 100% DMSO. • 4) Pipet 2 ul 10 mM stock compound to column 2; mix well • 5) Serially dilute 1:3 across from column 2-11, transferring 30 ul to next well and mixing well. • 6) Leave column 12 for zero compound (control signal) • 7) For Single Point testing (10 uM final) add 1 ul 10 mM compound to 100 ul DMSO; mix; transfer 5 ul to 120 ul RB; mix; transfer 5 ul to Assay Plate • 8) For 150 determination: Make up compound RB dilution plate: 60 μl/well RB in 96-well polypropylene round bottom plate. • 9) Transfer compounds to assay plate as follows: Mix DMSO dilutions; transfer 15 μl to 60 μl RB; transfer 5 μl/well to assay plates (single points, triplicate plates), delivering carefully to the bottom of the well; repeat for each dilution up to 10 μM. • 10) To run PKA Reactions: Make up ATP/KT solution; 4 uM ATP, 200 nM KT ([…], 100 nM KTfinal) • 11) Pipet 10 μl KT/ATP to wells containing compound. • 12) Make up protein solution in RB and determine the protein concentration. • 13) Deliver 5 μl protein solution to all wells except A1-H1, delivering to the upper region of the side of the well; Add 5 μl RB to A1-H1 (these are the 0 protein background controls) • 14) Gently tap the plate to ensure all volumes get to the bottom. Cover with foil lid. • 15) Incubate RT on bench top 30 minutes. • 16) Add 60 μl IMAP® beads in IMAP® Progressive binding buffer (100% A) diluted 1:1000 • 17) Read on VICTOR™ plate reader (protocol LissieTAMRA2) with the following settings: CW lamp filter 544 nm; emission filter 615 nm. Some adjustments may be made to the plate reader protocol depending on the reader and available filters. • 18) Use XLDA to calculate IC50s.

T1 sequence (P31749 118-480 S473D limits assumed, species assumed): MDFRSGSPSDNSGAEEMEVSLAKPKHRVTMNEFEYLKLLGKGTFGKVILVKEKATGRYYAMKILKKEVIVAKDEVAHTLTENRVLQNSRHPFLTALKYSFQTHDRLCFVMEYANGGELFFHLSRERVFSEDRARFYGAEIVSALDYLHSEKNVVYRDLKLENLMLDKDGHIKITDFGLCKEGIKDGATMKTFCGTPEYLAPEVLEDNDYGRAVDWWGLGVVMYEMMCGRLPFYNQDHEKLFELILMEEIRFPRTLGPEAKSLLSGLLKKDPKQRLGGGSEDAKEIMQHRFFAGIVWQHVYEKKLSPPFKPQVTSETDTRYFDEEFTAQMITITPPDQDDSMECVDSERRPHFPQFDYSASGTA

Turning to `Cc1c[nH]c2ncnc(N3CCC(N)(CNc4ccc(Cl)cc4)CC3)c12` [BB, 4-(4-chloro(phenylamino)methyl)-1-(5-methyl-7H-pyrrolo[2,3-d]pyrimidin-4-yl)piperidin-4-amine, reference compound], the IC50 in assay [1] turned out to be 45.9 nM. In addition, in assay [2], the “Selectivity Ratio (PKA/Akt)” value is 0.57 and the IC50 was 26.3 nM.
Take `Cc1c[nH]c2ncnc(N3CCC(N)(CNc4ccc(Cl)cc4)C3)c12` (stereo not drawn) [Example 200, 3-(4-chloro(phenylamino)methyl)-1-(5-methyl-7H-pyrrolo[2,3-d]pyrimidin-4-yl)pyrrolidin-3-amine]: the IC50 in assay [1] stood at 118 nM; in assay [2] it was 279 nM. Further, the “Selectivity Ratio (PKA/Akt)” value in assay [2] is on record as 2.36.
For `Cc1c[nH]c2ncnc(N3CCC(N)(CNc4ccccc4)C3)c12` (stereo not drawn) [Example 199, 3-((phenylamino)methyl)-1-(5-methyl-7H-pyrrolo[2,3-d]pyrimidin-4-yl)pyrrolidin-3-amine], the IC50 in assay [1] was found to be 162 nM. In assay [2], the “Selectivity Ratio (PKA/Akt)” value came to 15.93 and the IC50 worked out at 2580 nM.
